Tests used:
[1] = tested on: tyrosinase; assay: Expression of melanin production-associated genes (RT-PCR), tyrosinase; assay type: cell-based, mouse; details: B16F10 cells, 200 ng/mL α-MSH, peptide 1-160 μM, 72 hours, FIG. 3
Method: (§1) In detail, a mouse melanoma cell B16F10 was seeded in a 6-well plate at a density of 5×10^4 cells/well, followed by incubation for 16 hours. Thereafter, the culture medium was replaced by a medium supplemented with 2% (v/v) serum, and then 200 ng/mL of α-MSH was added thereto. Together therewith, the peptide composed of the amino acid sequence of SEQ ID NO: 1 was added at a concentration of 1 μM, 10 μM, 20 μM, 40 μM, 60 μM, 80 μM or 160 μM, respectively, followed by incubation for 72 hours. mRNAs were extracted from the cultured cells, and the extracted mRNAs were reverse transcribed using a cDNA synthesis kit & PCR pre-mix (Intron, Korea), thereby synthesizing cDNA, respectively. Thereafter, a polymerase chain reaction (PCR) was carried out using each cDNA and Rab27a, Melanophilin (Mlph), myosin VA, MITF, tyrosinase, or TRP1 primer pairs. Moreover, a control, a negative control, and a positive control were used in the same manner as in Example 2.(1), and nucleotide sequences of the primers used herein are as in Table 3 below.

[2] = target: T1, tyrosinase (Mus musculus, UniProt P11344); assay: Inhibitory effect on tyrosinase activity in α-MSH-stimulated B16F10 cells (L-DOPA, cell lysate); assay type: cell-based; details: 200 ng/mL α-MSH, peptide 1-160 μM, 72 hours, FIG. 2
T1 construct: the cells were lysed by adding 0.1 M sodium phosphate buffer (pH 6.8, lysis buffer) containing 1% (v/v) triton X-100; endogenous in cells; host or cells: B16F10 mouse melanoma cells, stimulated with alpha-MSH
T1 sequence (P11344 19-533): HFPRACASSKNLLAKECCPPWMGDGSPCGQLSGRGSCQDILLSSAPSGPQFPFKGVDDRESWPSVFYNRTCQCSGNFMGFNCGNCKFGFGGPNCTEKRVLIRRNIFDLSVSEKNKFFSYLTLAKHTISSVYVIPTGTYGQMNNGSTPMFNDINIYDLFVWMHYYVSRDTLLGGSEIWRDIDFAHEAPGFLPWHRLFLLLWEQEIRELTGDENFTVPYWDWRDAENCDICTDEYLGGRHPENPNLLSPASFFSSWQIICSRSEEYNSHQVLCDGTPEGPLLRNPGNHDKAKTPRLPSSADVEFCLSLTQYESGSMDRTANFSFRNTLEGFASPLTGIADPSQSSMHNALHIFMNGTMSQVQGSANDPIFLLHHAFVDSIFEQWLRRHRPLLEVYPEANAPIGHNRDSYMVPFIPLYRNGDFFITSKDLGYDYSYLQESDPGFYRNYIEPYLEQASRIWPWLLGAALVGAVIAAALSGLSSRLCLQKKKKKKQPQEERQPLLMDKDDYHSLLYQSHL
Method: In detail, a mouse melanoma cell B16F10 was seeded in a 6-well plate at a density of 5×10^4 cells/well, followed by incubation for 16 hours. Thereafter, the culture medium was replaced by a medium supplemented with 2% (v/v) serum, and then 200 ng/mL of α-MSH was added thereto. Together therewith, the peptide composed of the amino acid sequence of SEQ ID NO: 1 was added at a concentration of 1 μM, 10 μM, 20 μM, 40 μM, 60 μM, 80 μM or 160 μM, respectively, followed by incubation for 72 hours. The 6-well plate was placed on ice, and then washed with cold PBS twice. Thereafter, the cells were lysed by adding 0.1 M sodium phosphate buffer (pH 6.8, lysis buffer) containing 1% (v/v) triton X-100. Thereafter, the cells in the well plate were scraped using a scraper, and collected in a 1.5 mL tube. The collected cells were vortexed, and centrifuged at 15,000 rpm for 10 minutes to obtain a supernatant. Thereafter, proteins in the supernatant were quantified to adjust the protein content at a predetermined amount. A buffer was added thereto, and 90 μL total of the sample was dispensed in a 96-well plate.
Thereafter, 20 μL of 10 mM L-DOPA was added to each sample, and incubated at 37° C. for 1 hour. Then, absorbance at 475 nm was measured. […] From absorbance at […], the tyrosinase activity (fold) was determined.

[3] = tested on: TRP1; assay: Expression of melanin production-associated genes (RT-PCR), TRP1; assay type: cell-based, mouse; details: B16F10 cells, 200 ng/mL α-MSH, peptide 1-160 μM, 72 hours, FIG. 3
Method: as §1

[4] = tested on: Mlph; assay: Expression of melanin production-associated proteins (immunoblotting), Mlph; assay type: cell-based, mouse; details: B16F10 cells, 200 ng/mL α-MSH, peptide 1-160 μM, 72 hours, FIG. 4
Method: (§2) In detail, a mouse melanoma cell B16F10 was seeded in a 6-well plate at a density of 5×10^4 cells/well, followed by incubation for 16 hours. Thereafter, the culture medium was replaced by a medium supplemented with 2% (v/v) serum, and then 200 ng/mL of α-MSH was added thereto. Together therewith, the peptide composed of the amino acid sequence of SEQ ID NO: 1 was added at a concentration of 1 μM, 10 μM, 20 μM, 40 μM, 60 μM, 80 μM or 160 μM, respectively, followed by incubation for 72 hours. Thereafter, the cultured cells were lysed, and then subjected to immunoblotting using antibodies (all available from santacruz biotechnology, USA) against Mlph, Rab27a, tyrosinase (TYR), or MITF. In addition, a control, a negative control, and a positive control were used in the same manner as in Example 2.(1).

[5] = tested on: B16F10 cells; assay: Inhibitory effect on melanin production in α-MSH-stimulated B16F10 cells; assay type: cell-based, mouse; details: 200 ng/mL α-MSH, peptide 10, 50, 100 or 200 μM, 72 hours, FIG. 1
Method: A mouse melanoma cell B16F10 was seeded in a 6-well plate at a density of 5×10^4 cells/well, followed by incubation for 16 hours. Thereafter, the culture medium was replaced by a medium supplemented with 2% (v/v) serum, and then 200 ng/mL of α-melanocyte-stimulating hormones (α-MSH) was added thereto to stimulate melanin production, together with each peptide of an amino acid sequence of SEQ ID NO: 1, at a concentration of 10 μM, 50 μM, 100 μM, or 200 μM, respectively, followed by incubation for 72 hours. Thereafter, the incubated cells were dissolved in 1 N NaOH, and absorbance at 450 nm was measured. In addition, an untreated group (Con) was used as a control, and only an α-MSH-treated group as a negative control and 200 μM or 500 μM of arbutin-, which is a known skin-whitening agent, and α-MSH-treated group as a positive control were used.
From absorbance at 450 nm, the content of melanin (%) produced by B16F10 cells was determined.

[6] = tested on: MITF; assay: Expression of melanin production-associated genes (RT-PCR), MITF; assay type: cell-based, mouse; details: B16F10 cells, 200 ng/mL α-MSH, peptide 1-160 μM, 72 hours, FIG. 3
Method: as §1

[7] = tested on: MITF; assay: Expression of melanin production-associated proteins (immunoblotting), MITF; assay type: cell-based, mouse; details: B16F10 cells, 200 ng/mL α-MSH, peptide 1-160 μM, 72 hours, FIG. 4
Method: as §2

[8] = tested on: myosin VA; assay: Expression of melanin production-associated genes (RT-PCR), myosin VA; assay type: cell-based, mouse; details: B16F10 cells, 200 ng/mL α-MSH, peptide 1-160 μM, 72 hours, FIG. 3
Method: as §1

[9] = tested on: Rab27a; assay: Expression of melanin production-associated proteins (immunoblotting), Rab27a; assay type: cell-based, mouse; details: B16F10 cells, 200 ng/mL α-MSH, peptide 1-160 μM, 72 hours, FIG. 4
Method: as §2

[10] = tested on: Melanophilin (Mlph); assay: Expression of melanin production-associated genes (RT-PCR), Mlph; assay type: cell-based, mouse; details: B16F10 cells, 200 ng/mL α-MSH, peptide 1-160 μM, 72 hours, FIG. 3
Method: as §1

[11] = tested on: tyrosinase (TYR); assay: Expression of melanin production-associated proteins (immunoblotting), TYR; assay type: cell-based, mouse; details: B16F10 cells, 200 ng/mL α-MSH, peptide 1-160 μM, 72 hours, FIG. 4
Method: as §2

[12] = tested on: Rab27a; assay: Expression of melanin production-associated genes (RT-PCR), Rab27a; assay type: cell-based, mouse; details: B16F10 cells, 200 ng/mL α-MSH, peptide 1-160 μM, 72 hours, FIG. 3
Method: as §1

PNRYP [SEQ ID NO: 1]
expression of tyrosinase gene [1]: inhibited
tyrosinase activity [2]: inhibited
expression of TRP1 gene [3]: inhibited
expression of Mlph protein [4]: inhibited
melanin production [5]: reduced in a concentration-dependent manner
expression of MITF gene [6]: inhibited
expression of MITF protein [7]: inhibited
expression of myosin VA gene [8]: inhibited
expression of Rab27a protein [9]: inhibited
expression of Mlph gene [10]: inhibited
expression of TYR protein [11]: inhibited
expression of Rab27a gene [12]: inhibited
